Reference: the supplement of paper PMC10307832

Columns and labels:
Assay in all cases: relative viability (nuclei count vs DMSO), 5 days (fraction); higher = more cells survive
[1] = compound: Cc1ccc(NC(=O)c2ccc(CN3CCN(C)CC3)cc2)cc1Nc1nccc(-c2cccnc2)n1 [Imatinib] + Cc1cc(Nc2cc(N3CCN(C)CC3)nc(Sc3ccc(NC(=O)C4CC4)cc3)n2)n[nH]1 [Tozasertib] (partner 0.1 µM)
Summary of the method: (§1)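 Each reported value is a median over duplicate plates. It expresses relative viability: treated-well nuclei count divided by vehicle-well nuclei count. Lung cancer cell lines in 1536-well plates were dosed by pin tool a day after seeding, alone with one drug or with a fixed anchor-drug dose plus five library-drug doses (not always all listed) in √10 steps, and nuclei were counted after 5 days.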

[2] = compound: Cc1ccc(NC(=O)c2ccc(CN3CCN(C)CC3)cc2)cc1Nc1nccc(-c2cccnc2)n1 [Imatinib] + NC(=O)Nc1cc(-c2cccc(F)c2)sc1C(=O)N[C@H]1CCCNC1 [AZD7762] (partner 0.2 µM)
Summary of the method: as §1

[3] = compound: Cc1ccc(NC(=O)c2ccc(CN3CCN(C)CC3)cc2)cc1Nc1nccc(-c2cccnc2)n1 [Imatinib] + CC1(C)CCC(c2ccc(Cl)cc2)=C(CN2CCN(c3ccc(C(=O)NS(=O)(=O)c4ccc(N[C@H](CCN5CCOCC5)CSc5ccccc5)c(S(=O)(=O)C(F)(F)F)c4)cc3)CC2)C1 [Navitoclax] (partner 0.5 µM)
Summary of the method: as §1

[4] = compound: Cc1ccc(NC(=O)c2ccc(CN3CCN(C)CC3)cc2)cc1Nc1nccc(-c2cccnc2)n1 [Imatinib] + CC(=O)c1c(C)c2cnc(Nc3ccc(N4CCNCC4)cn3)nc2n(C2CCCC2)c1=O [Palbociclib] (partner 0.5 µM)
Summary of the method: as §1

Row | Cell Line | relative viability ([1]; first compound 0.02 µM) | relative viability ([1]; first compound 0.2 µM) | relative viability ([1]; first compound 0.6325 µM) | relative viability ([1]; first compound 2 µM) | relative viability ([2]; first compound 0.02 µM) | relative viability ([2]; first compound 0.06325 µM) | relative viability ([2]; first compound 0.2 µM) | relative viability ([2]; first compound 0.6325 µM) | relative viability ([2]; first compound 2 µM) | relative viability ([3]; first compound 0.02 µM) | relative viability ([3]; first compound 0.2 µM) | relative viability ([3]; first compound 0.6325 µM) | relative viability ([3]; first compound 2 µM) | relative viability ([4]; first compound 0.02 µM) | relative viability ([4]; first compound 0.06325 µM) | relative viability ([4]; first compound 0.2 µM) | relative viability ([4]; first compound 0.6325 µM) | relative viability ([4]; first compound 2 µM) | relative viability ([1]; first compound 0.06325 µM) | relative viability ([3]; first compound 0.06325 µM)
1 | A-427 | 0.192 | 0.176 | 0.195 | 0.197 | 0.812 | 0.84 | 0.634 | 0.654 | 0.572 | 1.05 | 0.998 | 0.945 | 0.949 | 0.533 | 0.555 | 0.51 | 0.514 | 0.543 |  | 
2 | BEN | 0.523 | 0.489 | 0.492 | 0.51 | 0.702 | 0.544 | 0.681 | 0.782 | 0.582 | 0.0684 | 0.0665 | 0.0553 | 0.0529 | 0.469 | 0.541 | 0.488 | 0.458 | 0.467 | 0.546 | 0.0589
3 | NCI-H3122 | 0.376 | 0.514 |  | 0.383 |  |  | 1.07 | 0.926 | 1.05 |  | 1.08 | 1.06 | 1.01 | 0.194 | 0.19 | 0.199 | 0.192 | 0.205 | 0.373 | 1.11
4 | EMC-BAC-2 | 0.297 | 0.33 | 0.283 | 0.277 | 1.21 | 1.3 | 1.19 | 1.21 | 1.11 | 1.18 | 1.31 | 1.24 | 1.22 | 0.525 | 0.571 | 0.514 | 0.553 | 0.517 | 0.296 | 1.49
5 | HOP-62 | 0.431 | 0.356 | 0.353 | 0.326 | 0.532 |  | 0.707 | 0.504 | 0.687 | 0.983 | 1.36 | 1.04 | 0.517 | 0.503 |  | 0.516 | 0.408 | 0.398 |  | 
6 | NCI-H1993 | 0.636 | 0.591 | 0.581 | 0.588 | 1.08 | 0.728 | 0.724 | 0.736 | 0.701 |  | 0.953 | 0.851 | 0.776 | 0.684 | 0.677 | 0.674 | 0.723 | 0.699 | 0.632 | 1
7 | NCI-H647 | 0.554 | 0.0832 | 0.28 | 0.321 | 0.708 | 0.519 | 0.383 | 0.383 | 0.381 | 1.42 | 1.14 | 1.12 | 1.17 | 0.532 | 0.39 | 0.402 | 0.375 | 0.407 | 0.242 | 1.36
8 | EPLC-272H | 0.366 | 0.256 | 0.258 | 0.207 | 0.218 |  |  | 0.156 | 0.15 | 1.22 | 1.12 | 1.11 | 1.06 | 0.309 |  |  | 0.34 | 0.297 |  | 
9 | NCI-H1915 | 0.468 | 0.458 | 0.385 | 0.341 | 0.705 |  | 0.781 | 0.659 | 0.665 | 0.788 | 0.807 | 0.759 | 0.777 | 0.523 |  | 0.556 | 0.456 | 0.518 |  | 
10 | CAL-12T | 0.369 | 0.311 | 0.293 | 0.225 | 0.692 | 0.724 | 0.637 | 0.699 |  | 1.44 | 1.21 | 1.38 | 0.974 | 0.374 | 0.412 | 0.535 | 0.496 | 0.444 |  | 1.32
11 | NCI-H727 | 0.59 | 0.518 | 0.543 | 0.509 | 0.651 |  | 0.506 | 0.573 | 0.507 | 0.324 | 0.4 | 0.412 | 0.417 | 0.577 |  | 0.599 | 0.569 | 0.601 | 0.59 | 0.398
12 | HARA | 0.083 | 0.107 | 0.0993 | 0.101 | 0.361 | 0.267 | 0.292 | 0.232 | 0.304 | 1.19 | 1.15 | 1.17 | 1.16 | 0.262 |  | 0.264 | 0.281 | 0.262 |  | 1.18
13 | LK-2 | 0.173 | 0.159 | 0.139 | 0.176 | 0.343 | 0.442 | 0.335 |  | 0.33 | 0.975 | 0.848 |  | 0.84 | 0.757 | 0.726 |  |  | 0.662 | 0.181 | 0.685
14 | NCI-H2087 | 0.247 | 0.206 | 0.202 | 0.183 | 1.33 |  | 1.58 | 1.35 |  | 1.07 | 1.21 | 1.11 | 0.956 | 0.192 |  | 0.188 | 0.243 |  |  | 1.03
15 | NCI-H838 | 0.241 | 0.28 | 0.307 | 0.275 | 1.04 | 1.03 | 0.961 | 0.954 | 1.02 | 1.34 | 1.34 | 1.14 | 1.28 | 0.254 | 0.255 | 0.241 | 0.254 | 0.247 | 0.318 | 1.54
16 | NCI-H2170 | 0.872 | 0.752 | 0.585 | 0.712 | 0.94 | 0.77 | 0.86 | 0.745 | 0.773 | 0.722 | 0.672 | 0.643 | 0.633 | 0.399 | 0.438 | 0.431 | 0.408 | 0.382 | 0.872 | 0.655
